In patent publication US20090186827A1, “Process of inhibiting cell death in injured cartilage” (The Scripps Research Institute, priority 2001, published 2009):
“Also recorded” adds a separate entry of the source. Where a SMILES comes first, the peptide text is derived from it. The star is where a group is joined. Cbz = O=C(OCc1ccccc1)*; CH2F = FC*

How the values were obtained:
[1] = tested on: bovine cartilage explants; test: Load-induced chondrocyte apoptosis (TUNEL) in bovine cartilage explants; assay type: cell-based
Source text: Cartilage explants. Macroscopically normal weight bearing portions of freshly slaughtered skeletally mature bovine femoral condyles were selected from animals between 2 and 6 years of age (Animal Technologies, Austin, Tex.). Only joints without visible signs of degeneration or aging were selected. Using sterile techniques, full thickness cartilage was separated from underlying subchondral bone with a scalpel and 5 mm diameter cylindrical explants, ranging from 1 to 1.8 mm in height, cored out using a dermal punch (Acuderm, Inc., Ft. Lauderdale, Fla.). Explants taken from adjacent sites were used as matched controls for each group in each experiment to minimize variation in cartilage response due to differences in thickness and location within the joint. Each explant was weighed and allowed to stabilize at 37° C. and 5% CO2 for 48 hours in 1 ml of Dulbecco's modified Eagle's medium (DMEM) supplemented with 10% fetal bovine serum (FBS), L-glutamine, antibiotics and 50 μg/ml ascorbic acid.
(§1) Loading apparatus and procedure. […] Stress and strain data were recorded during the test.
Apoptosis detection. […] TUNEL positive cells emit a bright green fluorescence while TUNEL negative cells display an orange color due to propidium iodide counterstaining. […] Cells in all areas were counted and divided into TUNEL positive or TUNEL negative. […]

[2] = tested on: femoral and tibial articular cartilage; test: Intraarticular injection of caspase inhibitor in rabbits with anterior cruciate ligament transection (ACLT); assay type: in vivo, New Zealand White rabbits
Protocol: Intraarticular injection of caspase inhibitor in rabbits with ligament transection. A pilot study was performed to assess feasibility and efficacy of caspase inhibition in vivo. Eight New Zealand White rabbits were divided into anterior cruciate ligament transection (ACLT) and ACLT+caspase inhibitor (CI) groups. Both groups underwent bilateral ACLT. The ACLT+CI group was treated with intra-articular injections of 25 μg of z-VAD.fmk three times per week for six weeks while the control group received saline injections. Rabbits were euthanised at six weeks and femoral and tibial articular cartilage evaluated by India ink staining and histologic Mankin grading after Safranin-O stain.

human cartilage explants = test: Load-induced chondrocyte apoptosis (TUNEL) in human cartilage explants; assay type: cell-based; conditions: loaded explants (30% strain) cultured in 100 mM z-VAD.fmk after injury, 96 hours post-injury
Source text: Cartilage explants. Macroscopically normal tibial and femoral articular surfaces were selected from human cadaver donors between 18 and 45 years of age. Using sterile techniques, full thickness cartilage was separated from underlying subchondral bone with a scalpel. 5 mm diameter cylindrical explants, ranging from 2 to 2.8 mm in thickness, cored out using a dermal punch (Acuderm, Inc., Ft. Lauderdale, Fla.). Explants taken from adjacent sites were used as matched controls for each group in each experiment to minimize variation in cartilage response due to differences in thickness and location within the joint. […]
as §1
Caspase inhibition. […] Percentage apoptosis was measured at 96 hours post-injury in three groups (control, loaded, and loaded with z-VAD.fmk) with ten explants each in two separate experiments.
Apoptosis detection. […] This was detected by immunohistochemical staining with M30 (Cytodeath, Boehringer Mannheim, Eugene, Oreg.), a monoclonal antibody that recognizes the neo-epitope exposed in early apoptosis.
Chondrocyte apoptosis after mechanical injury to human cartilage. […] GAG release and percentage of cells undergoing apoptosis were measured at 96 hours after injury. […]

[3] = tested on: bovine cartilage explants; test: Glycosaminoglycan (GAG) release assay, mechanically injured bovine cartilage explants; assay type: cell-based; conditions: loaded bovine explants treated with caspase inhibitor
Protocol: Glycosaminoglycan release assay. To estimate GAG depletion and release, the concentration of sulfated glycosaminoglycans was measured using […] (DMMB) as a monitor of spectrophotometric changes which occur during the formation of the sulfated GAG dye complex (Farndale, et al. (1986) Biochim. Biophys. Acts. 883, 173-177, Goldberg, et al. (1993) Agents Actions 39 Spec No, C163-C165). For GAG content measurement, samples were digested in papain and collagenase and the concentration of sulfated GAG measured using DMMB. To generate a standard curve, chondroitin-6-sulfate (Sigma, St. Louis, Mo.) was used at concentrations between 1 and 200 μg/ml. GAG released in media was normalized to the pooled mean GAG content of Control (uninjured) cartilage explants and expressed as a percentage of total GAG content.
Inhibition of apoptosis. To determine whether apoptosis could be prevented by caspase inhibition, 12 explants were loaded at 23 MPa (High Load) and cultured for 48 hours. […] Percent apoptosis and GAG release in media was measured as described above.
Release of sulfated glycosaminoglycans (GAG) was analyzed as a measure of the extent of damage sustained by the explant. […] GAG depletion was assessed by dimethylene blue binding assays of the culture supernatants and this correlated with the reduced of safranin O staining of the cartilage sections.

## COC(=O)CC(NC(=O)C(C)NC(=O)C(NC(=O)OCc1ccccc1)C(C)C)C(=O)CF (stereo not drawn) [z-VAD.fmk, benzyloxycarbonyl-Val-Ala-Asp (OMe) fluoromethylketone] (Cbz-Val-Ala-Asp(OMe)-CH2F; configuration not given here)
[1]; high and intermediate load groups
  reduction in the apoptosis rate: > 50%
[1]; loaded bovine explants, z-VAD.fmk 100 μM, 48 hours
  chondrocyte apoptosis after mechanical injury (in words): reduced chondrocyte apoptosis
[2]; 25 μg intra-articular three times per week for six weeks, bilateral ACLT
  reduction of the size of the cartilage lesions (surface area, India ink stained femoral condyles): ~80%
[2]; ACLT+CI group, six weeks
  cartilage lesions under India ink examination (in words): lesions that were smaller in area
[2]; ACLT+CI group, six weeks, 4/8 knees
  knees with Mankin grade 5 or higher: 50%
Human cartilage explants
  reduction in apoptotic rates: 50%
[3]
  GAG release / GAG depletion (in words): reduction in GAG release; also recorded: normalization of the GAG depletion
